9 cell lines from the supplement of paper PMC10307832 can be followed below.

Holding throughout (experiment): relative viability (nuclei count vs DMSO), 5 days (fraction); higher = more cells survive
Compound in the assay “Everolimus + Bortezomib”: CO[C@H]1C[C@@H]2CC[C@@H](C)[C@@](O)(O2)C(=O)C(=O)N2CCCC[C@H]2C(=O)O[C@H]([C@H](C)C[C@@H]2CC[C@@H](OCCO)[C@H](OC)C2)CC(=O)[C@H](C)/C=C(\C)[C@@H](O)[C@@H](OC)C(=O)[C@H](C)C[C@H](C)/C=C/C=C/C=C/1C [Everolimus] + CC(C)C[C@H](NC(=O)[C@H](Cc1ccccc1)NC(=O)c1cnccn1)B(O)O [Bortezomib] (partner 0.002 µM)
In a few lines:
(§1)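 Lung cancer cell lines were seeded in 1536-well plates and dosed by pin tool the next day, with either a single drug or a fixed anchor-drug dose combined with five library-drug doses (not always all listed) spaced in √10 steps. Five days later, one step fixed the cells and stained their nuclei (final 0.05% Triton X-100, 1% formaldehyde, 1 ug/ml Hoechst), and nuclei were counted on 4× images. Relative viability is the nuclei count in treated wells divided by the count in vehicle wells, and each value is the median of duplicate plates.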

Compound in the assay “Everolimus + Pemetrexed”: CO[C@H]1C[C@@H]2CC[C@@H](C)[C@@](O)(O2)C(=O)C(=O)N2CCCC[C@H]2C(=O)O[C@H]([C@H](C)C[C@@H]2CC[C@@H](OCCO)[C@H](OC)C2)CC(=O)[C@H](C)/C=C(\C)[C@@H](O)[C@@H](OC)C(=O)[C@H](C)C[C@H](C)/C=C/C=C/C=C/1C [Everolimus] + Nc1nc2[nH]cc(CCc3ccc(C(=O)N[C@@H](CCC(=O)O)C(=O)O)cc3)c2c(=O)[nH]1 [Pemetrexed] (partner 0.2 µM)
In a few lines: as §1

Compound in the assay “Everolimus + Alpelisib”: CO[C@H]1C[C@@H]2CC[C@@H](C)[C@@](O)(O2)C(=O)C(=O)N2CCCC[C@H]2C(=O)O[C@H]([C@H](C)C[C@@H]2CC[C@@H](OCCO)[C@H](OC)C2)CC(=O)[C@H](C)/C=C(\C)[C@@H](O)[C@@H](OC)C(=O)[C@H](C)C[C@H](C)/C=C/C=C/C=C/1C [Everolimus] + Cc1nc(NC(=O)N2CCC[C@H]2C(N)=O)sc1-c1ccnc(C(C)(C)C(F)(F)F)c1 [Alpelisib] (partner 2 µM)
An outline of the steps: as §1

Compound in the assay “Everolimus + Olaparib”: CO[C@H]1C[C@@H]2CC[C@@H](C)[C@@](O)(O2)C(=O)C(=O)N2CCCC[C@H]2C(=O)O[C@H]([C@H](C)C[C@@H]2CC[C@@H](OCCO)[C@H](OC)C2)CC(=O)[C@H](C)/C=C(\C)[C@@H](O)[C@@H](OC)C(=O)[C@H](C)C[C@H](C)/C=C/C=C/C=C/1C [Everolimus] + O=C(c1cc(Cc2n[nH]c(=O)c3ccccc23)ccc1F)N1CCN(C(=O)C2CC2)CC1 [Olaparib] (partner 8 µM)
An outline of the steps:
as §1

For HCC-15, the relative viability with Everolimus + Bortezomib (first compound 0.01 µM) was 1.01; with Everolimus + Bortezomib (first compound 0.03162 µM), 1.09; with Everolimus + Bortezomib (first compound 0.1 µM), 0.968; with Everolimus + Bortezomib (first compound 0.3162 µM), 1.06; in the assay with Everolimus + Bortezomib (first compound 1 µM), 1.07; with Everolimus + Pemetrexed (first compound 0.01 µM), 0.222. The relative viability in the assay with Everolimus + Pemetrexed (first compound 0.03162 µM) was found to be 0.273; in the assay with Everolimus + Pemetrexed (first compound 0.1 µM) it was 0.23; with Everolimus + Pemetrexed (first compound 0.3162 µM) it was 0.231; with Everolimus + Pemetrexed (first compound 1 µM) it was 0.222; in the assay with Everolimus + Alpelisib (first compound 0.01 µM), 0.763; with Everolimus + Alpelisib (first compound 0.03162 µM), 0.678. For the same cell line, the relative viability with Everolimus + Alpelisib (first compound 0.1 µM) came to 0.685; in the assay with Everolimus + Alpelisib (first compound 0.3162 µM), 0.608; with Everolimus + Alpelisib (first compound 1 µM), 0.605; with Everolimus + Olaparib (first compound 0.01 µM) it was 0.723; with Everolimus + Olaparib (first compound 0.03162 µM), 0.796; with Everolimus + Olaparib (first compound 0.1 µM), 0.642. Also, the relative viability with Everolimus + Olaparib (first compound 0.3162 µM) came to 0.656; with Everolimus + Olaparib (first compound 1 µM), 0.647.
HCC-44: the relative viability in the assay with Everolimus + Bortezomib (first compound 0.01 µM) was 0.978; with Everolimus + Bortezomib (first compound 0.03162 µM) it was 0.958; in the assay with Everolimus + Bortezomib (first compound 0.1 µM) it was 0.937; in the assay with Everolimus + Bortezomib (first compound 0.3162 µM), 1.08; in the assay with Everolimus + Bortezomib (first compound 1 µM), 0.858; with Everolimus + Pemetrexed (first compound 0.01 µM), 0.769. For the same cell line, the relative viability was found to be 0.802 with Everolimus + Pemetrexed (first compound 0.03162 µM); 0.675 in the assay with Everolimus + Pemetrexed (first compound 0.1 µM); 0.705 with Everolimus + Pemetrexed (first compound 0.3162 µM); 0.727 in the assay with Everolimus + Pemetrexed (first compound 1 µM); 0.616 with Everolimus + Alpelisib (first compound 0.01 µM); 0.597 with Everolimus + Alpelisib (first compound 0.03162 µM). Besides, the relative viability with Everolimus + Alpelisib (first compound 0.1 µM) worked out at 0.44; with Everolimus + Alpelisib (first compound 0.3162 µM), 0.511; in the assay with Everolimus + Alpelisib (first compound 1 µM), 0.44; in the assay with Everolimus + Olaparib (first compound 0.01 µM), 1; with Everolimus + Olaparib (first compound 0.03162 µM), 1.17; with Everolimus + Olaparib (first compound 0.1 µM), 1.07. In addition, the relative viability in the assay with Everolimus + Olaparib (first compound 0.3162 µM) was 1.06; with Everolimus + Olaparib (first compound 1 µM) it was 1.03.
As to HCC-78, the relative viability with Everolimus + Bortezomib (first compound 0.01 µM) amounted to 0.428; with Everolimus + Bortezomib (first compound 0.03162 µM), 0.375; in the assay with Everolimus + Bortezomib (first compound 0.1 µM), 0.384; with Everolimus + Bortezomib (first compound 0.3162 µM), 0.371; in the assay with Everolimus + Bortezomib (first compound 1 µM) it was 0.314; with Everolimus + Pemetrexed (first compound 0.01 µM) it was 0.902. Moreover, the relative viability was 0.929 with Everolimus + Pemetrexed (first compound 0.03162 µM); 0.873 with Everolimus + Pemetrexed (first compound 0.1 µM); 0.914 with Everolimus + Pemetrexed (first compound 0.3162 µM); 0.93 with Everolimus + Pemetrexed (first compound 1 µM); 0.244 in the assay with Everolimus + Alpelisib (first compound 0.01 µM); 0.244 with Everolimus + Alpelisib (first compound 0.03162 µM). Also, the relative viability came to 0.213 in the assay with Everolimus + Alpelisib (first compound 0.1 µM); 0.234 with Everolimus + Alpelisib (first compound 0.3162 µM); 0.228 with Everolimus + Alpelisib (first compound 1 µM); 0.827 with Everolimus + Olaparib (first compound 0.01 µM); 0.43 with Everolimus + Olaparib (first compound 0.03162 µM); 0.657 with Everolimus + Olaparib (first compound 0.1 µM). In addition, the relative viability was 0.717 in the assay with Everolimus + Olaparib (first compound 0.3162 µM) and 0.678 with Everolimus + Olaparib (first compound 1 µM).
Turning to IA-LM, the relative viability in the assay with Everolimus + Bortezomib (first compound 0.01 µM) was 0.209; in the assay with Everolimus + Bortezomib (first compound 0.03162 µM), 0.255; in the assay with Everolimus + Bortezomib (first compound 0.1 µM) it was 0.305; with Everolimus + Bortezomib (first compound 0.3162 µM) it was 0.439; with Everolimus + Bortezomib (first compound 1 µM), 0.405; with Everolimus + Alpelisib (first compound 0.01 µM), 0.185. Besides, the relative viability with Everolimus + Alpelisib (first compound 0.03162 µM) worked out at 0.334; in the assay with Everolimus + Alpelisib (first compound 0.1 µM), 0.27; with Everolimus + Alpelisib (first compound 0.3162 µM) it was 0.149; with Everolimus + Alpelisib (first compound 1 µM), 0.288; in the assay with Everolimus + Olaparib (first compound 0.01 µM) it was 0.759; in the assay with Everolimus + Olaparib (first compound 0.03162 µM) it was 0.613. The results for the relative viability with Everolimus + Olaparib (first compound 0.1 µM), with Everolimus + Olaparib (first compound 0.3162 µM) and in the assay with Everolimus + Olaparib (first compound 1 µM) were 0.603, 0.741 and 0.665, respectively.
LK-2: the relative viability with Everolimus + Pemetrexed (first compound 0.01 µM) turned out to be 0.203; with Everolimus + Pemetrexed (first compound 0.03162 µM), 0.229; in the assay with Everolimus + Pemetrexed (first compound 0.1 µM), 0.212; with Everolimus + Pemetrexed (first compound 0.3162 µM), 0.208; with Everolimus + Pemetrexed (first compound 1 µM) it was 0.167; with Everolimus + Alpelisib (first compound 0.01 µM) it was 0.827. Further, the relative viability was determined as 0.607 in the assay with Everolimus + Alpelisib (first compound 0.1 µM); 0.568 in the assay with Everolimus + Alpelisib (first compound 0.3162 µM); 0.556 with Everolimus + Alpelisib (first compound 1 µM); 0.594 in the assay with Everolimus + Olaparib (first compound 0.01 µM); 0.603 in the assay with Everolimus + Olaparib (first compound 0.03162 µM); 0.413 with Everolimus + Olaparib (first compound 0.1 µM). Besides, the figures for the relative viability with Everolimus + Olaparib (first compound 0.3162 µM) and in the assay with Everolimus + Olaparib (first compound 1 µM) were 0.403 and 0.351, respectively.
For NCI-H358, the relative viability with Everolimus + Pemetrexed (first compound 0.01 µM) is 0.173; in the assay with Everolimus + Pemetrexed (first compound 0.03162 µM) it was 0.162; with Everolimus + Pemetrexed (first compound 0.1 µM) it was 0.162; in the assay with Everolimus + Pemetrexed (first compound 0.3162 µM) it was 0.158; in the assay with Everolimus + Pemetrexed (first compound 1 µM) it was 0.153; with Everolimus + Alpelisib (first compound 0.01 µM), 0.504. For the same cell line, the relative viability with Everolimus + Alpelisib (first compound 0.03162 µM) is 0.362; in the assay with Everolimus + Alpelisib (first compound 0.1 µM), 0.438; in the assay with Everolimus + Alpelisib (first compound 0.3162 µM) it was 0.445; with Everolimus + Alpelisib (first compound 1 µM) it was 0.402; in the assay with Everolimus + Olaparib (first compound 0.01 µM), 0.424; with Everolimus + Olaparib (first compound 0.03162 µM) it was 0.384. The relative viability with Everolimus + Olaparib (first compound 0.1 µM) worked out at 0.303; with Everolimus + Olaparib (first compound 0.3162 µM) it was 0.325; with Everolimus + Olaparib (first compound 1 µM) it was 0.389.
As to NCI-H522, the relative viability with Everolimus + Pemetrexed (first compound 0.01 µM) came out at 0.735; with Everolimus + Pemetrexed (first compound 0.03162 µM) it was 0.79; in the assay with Everolimus + Pemetrexed (first compound 0.1 µM), 0.521; with Everolimus + Pemetrexed (first compound 0.3162 µM) it was 0.548; with Everolimus + Pemetrexed (first compound 1 µM), 0.732; in the assay with Everolimus + Olaparib (first compound 0.01 µM) it was 0.609. Besides, the relative viability in the assay with Everolimus + Olaparib (first compound 0.03162 µM) came to 0.474; with Everolimus + Olaparib (first compound 0.1 µM), 0.429; in the assay with Everolimus + Olaparib (first compound 0.3162 µM), 0.448; with Everolimus + Olaparib (first compound 1 µM), 0.438.
Consider NCI-H727, for which the relative viability with Everolimus + Bortezomib (first compound 0.01 µM) is 0.513; with Everolimus + Bortezomib (first compound 0.03162 µM), 0.546; with Everolimus + Bortezomib (first compound 0.1 µM) it was 0.434; with Everolimus + Bortezomib (first compound 0.3162 µM), 0.597; with Everolimus + Bortezomib (first compound 1 µM), 0.52; with Everolimus + Alpelisib (first compound 0.01 µM) it was 0.399. Further, the relative viability was 0.328 with Everolimus + Alpelisib (first compound 0.03162 µM); 0.266 with Everolimus + Alpelisib (first compound 0.1 µM); 0.308 with Everolimus + Alpelisib (first compound 0.3162 µM); 0.364 with Everolimus + Alpelisib (first compound 1 µM); 0.719 with Everolimus + Olaparib (first compound 0.01 µM); 0.673 with Everolimus + Olaparib (first compound 0.03162 µM). Moreover, the values for the relative viability with Everolimus + Olaparib (first compound 0.1 µM), with Everolimus + Olaparib (first compound 0.3162 µM) and with Everolimus + Olaparib (first compound 1 µM) were 0.569, 0.524 and 0.755, respectively.
In the case of NCI-H1299, the relative viability amounted to 1.04 with Everolimus + Bortezomib (first compound 0.01 µM); 1.08 in the assay with Everolimus + Bortezomib (first compound 0.03162 µM); 1.02 with Everolimus + Bortezomib (first compound 0.1 µM); 1.07 with Everolimus + Bortezomib (first compound 0.3162 µM); 1.1 in the assay with Everolimus + Bortezomib (first compound 1 µM); 1.04 with Everolimus + Alpelisib (first compound 0.01 µM). Moreover, the relative viability worked out at 1.09 with Everolimus + Alpelisib (first compound 0.03162 µM); 1.01 in the assay with Everolimus + Alpelisib (first compound 0.1 µM); 1.06 in the assay with Everolimus + Alpelisib (first compound 0.3162 µM); 1.06 with Everolimus + Alpelisib (first compound 1 µM); 0.953 in the assay with Everolimus + Olaparib (first compound 0.01 µM); 0.987 with Everolimus + Olaparib (first compound 0.03162 µM). Also, the figures for the relative viability in the assay with Everolimus + Olaparib (first compound 0.1 µM), with Everolimus + Olaparib (first compound 0.3162 µM) and in the assay with Everolimus + Olaparib (first compound 1 µM) were 0.994, 1.04 and 0.841, respectively.
